# Laboratory results: patent publication US20060040876A1, “Modulation of peroxisome proliferator-activated receptors” (priority 2004, published 2006)
# Tests used:
# [1] = tested on: 15-keto prostaglandin-Δ^13-reductase; test: 15-keto prostaglandin-Δ^13-reductase inhibition assay; assay type: biochemical; conditions: different concentrations of inhibitor, incubated 2 hours at 37° C.
# Method: Enzymatic activity was determined as follows. 10 μg of the recombinant mouse PGR-2 protein was incubated at 37° C. in a reaction buffer containing 0.1M Tris-HCl (pH 7.4), 0.5 mM NADPH, and 0.57 mM 15-keto PGE2. The reaction was conducted at 37° C. in the dark for 10 minutes and terminated by adding 700 μl of a buffer which contained 50 mM potassium hydrogen phthalate, pH 3.0, and 1% Tween 20. 200 μl of a color development reagent, which contained 790 μM indonitrotetrazolium chloride, 60 μM phenazene methosulfate, and 1% Tween 20, was added to oxidize any unreacted NADPH. Absorbance at 490 nm was measured by an ELISA plate reader. A standard curve was generated using reaction buffers containing serially diluted amounts of NADPH. […]
# A series of compounds were tested for their inhibitory effects on 15-keto prostaglandin-Δ^13-reductase activity. The inhibition assay was performed following the procedure described above. Different concentrations of 15-keto prostaglandin-Δ^13-reductase inhibitors were added to the reaction mixture and incubated for 2 hours at 37° C.
# [2] = tested on: Female diabetic mice (C57BLKS/J-m+/+Lep^db); test: Blood glucose levels in insulin-resistant, hyperglycemic diabetic mice; assay type: in vivo, mouse; conditions: 25 mg/kg intraperitoneally twice a day for two days
# Method: The in vivo effect of another inhibitor, 2,2′-dihydroxychalcone, on glucose metabolism was also investigated. Female diabetic mice were obtained from the Jackson Laboratory (C57BLKS/J-m+/+Lep^db, 12 to 13 weeks old). These mice were characterized as insulin-resistant and hyperglycemic. 25 mg/kg of 2,2′-dihydroxychalcone (n=8) or placebo (n=4, final concentration against body fluid: 0.5% DMSO/1% ethanol) was injected intraperitoneally to the mice twice a day for two days. The mice were then fasted from the 48th hour through 52nd hour after the first injection. Blood samples were collected from the retro-orbital sinus before the first injection, and every two hours after two days of treatment. Blood glucose levels were measured by an electrode-type blood glucose meter (HORIBA, AntSense II, Japan).
# 3T3-L1 cells [3] = test: Glucose transport assay, uptake of 2-deoxy-D-[3H]glucose in differentiated 3T3-L1 cells; assay type: cell-based, mouse
# Method: 3T3-L1 cells were induced to differentiate in the same manner as described above. A glucose transport assay was performed by measuring uptake of 2-deoxy-D-[3H]glucose as described by Fingar et al. See Fingar et al., Endocrinology 134:728-735. 1.67 μM of the inhibitor or 45 nM of a PPAR agonist, i.e., AVANDIA, was added to the cells. 10 μM cytochalasin-B was used to measure background glucose uptake levels.
# [4] = target: T1, recombinant mouse PGR-2 protein (Mus musculus, UniProt Q8VDQ1); test: Substrate specificity and kinetics of recombinant PGR-2 (NADPH oxidation, absorbance at 490 nm); assay type: biochemical; conditions: for specific activity as substrate of PGR-2: 15-keto PGE2 replaced with the test substrate, 0.5 mM NADPH, 37° C., 10 minutes
# T1 construct: GST (N); made in house; host or cells: E. coli
# T1 sequence (Q8VDQ1 whole entry): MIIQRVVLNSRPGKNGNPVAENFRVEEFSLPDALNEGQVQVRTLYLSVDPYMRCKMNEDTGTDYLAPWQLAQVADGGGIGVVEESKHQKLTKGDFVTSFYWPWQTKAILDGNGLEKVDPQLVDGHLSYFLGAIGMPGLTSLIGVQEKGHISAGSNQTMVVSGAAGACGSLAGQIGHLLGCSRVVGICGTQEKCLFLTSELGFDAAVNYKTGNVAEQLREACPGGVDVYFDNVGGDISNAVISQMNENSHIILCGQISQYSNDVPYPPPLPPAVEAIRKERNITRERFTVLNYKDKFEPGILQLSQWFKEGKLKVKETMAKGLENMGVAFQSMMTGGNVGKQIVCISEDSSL
# Method: Mouse PGR-2 was recombinantly expressed in E. coli as a GST fusion protein following standard procedures. The recombinant PGR-2 protein thus obtained was used to determine substrate specificity and enzymatic kinetics.
# Enzymatic activity was determined as follows. 10 μg of the recombinant mouse PGR-2 protein was incubated at 37° C. in a reaction buffer containing 0.1M Tris-HCl (pH 7.4), 0.5 mM NADPH, and 0.57 mM 15-keto PGE2. The reaction was conducted at 37° C. in the dark for 10 minutes and terminated by adding 700 μl of a buffer which contained 50 mM potassium hydrogen phthalate, pH 3.0, and 1% Tween 20. 200 μl of a color development reagent, which contained 790 μM indonitrotetrazolium chloride, 60 μM phenazene methosulfate, and 1% Tween 20, was added to oxidize any unreacted NADPH. Absorbance at 490 nm was measured by an ELISA plate reader. A standard curve was generated using reaction buffers containing serially diluted amounts of NADPH.
# Substrate specificity of PGR-2 was determined using the just-described procedure, except that 15-keto PGE2 was replaced with each of six prostaglandin substrates, each of three downstream metabolites, or leukotriene B4.
# Unlike PGR/LTB4DH, PGR-2 used NADPH as a cofactor much more efficiently than NADH.
# endogenous PPAR = test: Reporter gene assay of endogenous PPAR activity in differentiating 3T3-L1 cells; assay type: cell-based, mouse; conditions: 3T3-L1 cells induced to differentiate for two days, transfected with reporter gene
# Method: (§1) The effect of prostaglandin on PPAR-gamma activity in adipocytes was investigated. After treatment with a medium that induces cell differentiation, 3T3-L1 cells were treated from day 2 to 4 during adipogenesis with 14 μM 15-keto PGE2, 13,14-dihydro-15-keto PGE2, 15-keto PGF2α, 13,14-dihydro-15-keto PGF2α, or 4.5 μM of BRL49653, a PPAR-gamma agonist. See Forman et al., Cell (1995) 83:803-812. At day 6, aggregates of lipid droplets were stained with oil-red O for observation. […] After being induced to differentiate for two days, the 3T3-L1 cells were transfected with a reporter gene.
# 3T3-L1 cells [5] = test: Adipogenesis in 3T3-L1 cells, lipid droplets stained with oil-red O; assay type: cell-based, mouse; conditions: 14 μM, day 2 to 4 during adipogenesis; stained at day 6
# Method: as §1
# [6] = tested on: PPAR-gamma1 and PPAR-gamma2; test: PPAR-gamma1 and PPAR-gamma2 protein expression in 3T3-L1 cells; assay type: cell-based, mouse; conditions: 15-keto PGE2 and MIX added with insulin and dexamethasone
# IRS-2 = IRS-2 protein expression in 3T3-L1 cells; assay type: cell-based, mouse; conditions: in the presence of insulin and dexamethasone
# From the text: (§2) Also examined was the ability of 15-keto PGE2 to induce protein expression of adipogenesis-specific, PPAR-gamma target genes, i.e., IRS-1 and -2.
# IRS-1 = IRS-1 protein expression in 3T3-L1 cells; assay type: cell-based, mouse
# From the text: as §2
# aP2 = aP2 expression in 3T3-L1 cells; assay type: cell-based, mouse; conditions: even in the absence of MIX
# PPAR-gamma = target: T2, PPAR-gamma (Homo sapiens, UniProt P37231); test: Luciferase reporter with PPAR-gamma ligand-binding domain fused to GAL4 DNA-binding domain in 3T3-L1 cells; assay type: cell-based
# T2 construct: expressed in transfected cells; host or cells: 3T3-L1 cells
# T2 sequence (P37231 238-503 limits assumed): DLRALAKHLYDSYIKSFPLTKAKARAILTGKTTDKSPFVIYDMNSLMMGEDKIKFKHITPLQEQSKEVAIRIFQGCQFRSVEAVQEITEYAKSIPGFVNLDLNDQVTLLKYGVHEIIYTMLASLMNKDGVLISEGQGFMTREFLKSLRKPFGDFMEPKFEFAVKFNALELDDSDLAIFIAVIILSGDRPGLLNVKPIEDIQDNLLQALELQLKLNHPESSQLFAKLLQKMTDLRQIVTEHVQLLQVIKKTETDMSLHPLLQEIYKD
# From the text: A luciferase reporter gene was transfected to 3T3-L1 cells together with the ligand-binding domain of PPAR-alpha, PPAR-gamma or PPAR-delta fused to a yeast GAL4 DNA-binding domain.
SMILES,inhibition of 15-keto prostaglandin-Δ^13-reductase activity [1],specific activity as substrate of PGR-2 [4],further results
"O=C(/C=C/c1ccccc1O)c1ccc(O)cc1O [2,2′,4′-trihydroxychalcone]",inhibited,–,–
"O=C(/C=C/c1ccccc1O)c1cc(O)ccc1O [2,2′,5′-trihydroxychalcone]",inhibited,–,–
"O=C(/C=C/c1ccccc1O)c1ccccc1O [2,2′-dihydroxychalcone]",inhibited,–,blood glucose levels compared to placebo controls [2]: significant reduction
"O=C(/C=C/c1ccccc1)c1ccc(O)cc1O [2′,4′-dihydroxychalcone]",inhibited,–,–
"O=C(/C=C/c1cccc(O)c1)c1ccccc1O [3,2′-dihydroxychalcone]",inhibited,–,–
"O=c1c(O)c(-c2cccc(O)c2)oc2ccccc12 [3,3′-dihydroxyflavone]",inhibited,–,–
"O=c1oc2ccccc2c(O)c1Cc1c(O)c2ccccc2oc1=O [3,3′-methylene-bis(4-hydroxycoumarin)]",inhibited,–,"ability to enhance glucose uptake compared with AVANDIA (3T3-L1 cells [3]; 1.67 μM inhibitor vs 45 nM AVANDIA): comparable to that of AVANDIA; increase of glucose uptake (3T3-L1 cells [3]; 1.67 μM inhibitor, 100 nM insulin, differentiated 3T3-L1 cells): 30 folds"
"O=C(/C=C/c1ccc(O)cc1)c1ccccc1O [4,2′-dihydroxychalcone]",inhibited,–,–
O=c1cc(O)c2ccccc2o1 [4-hydroxycoumarin],inhibited,–,–
"O=c1cc(-c2ccccc2)oc2cc(O)cc(O)c12 [5,7-dihydroxyflavone]",inhibited,–,–
"COc1cc(O)c(C(=O)/C=C/c2cc(Br)ccc2O)c(OC)c1 [5-bromo-2,2′-dihydroxy-4′,6′-dimethoxychalcone]",inhibited,–,–
CCCCC[C@H](O)/C=C/[C@@H]1[C@@H](CC(=O)CCCCC(=O)O)[C@@H](O)C[C@H]1O [6-keto PGF1α],–,no specific activity was detected,–
CCCCC[C@H](O)/C=C/[C@@H]1[C@@H](C/C=C\CCCC(=O)O)[C@@H](O)C[C@@H]1O [11b-PGF2α],–,no specific activity was detected,–
"CCCCCC(=O)CCC1C(=O)CC(O)C1C/C=C\CCCC(=O)O (stereo not shown) [13,14-dihydro-15-keto PGD2]",–,no specific activity was detected,–
"CCCCCC(=O)CC[C@H]1[C@H](O)CC(=O)[C@@H]1C/C=C\CCCC(=O)O [13,14-dihydro-15-keto PGE2, reference compound]",–,no specific activity was detected,endogenous PPAR activity (reporter gene) (endogenous PPAR): failed to increase PPAR activity
"CCCCCC(=O)CC[C@@H]1[C@@H](C/C=C\CCCC(=O)O)[C@@H](O)C[C@H]1O [13,14-dihydro-15-keto PGF2α, reference compound]",–,no specific activity was detected,endogenous PPAR activity (reporter gene) (endogenous PPAR): failed to increase PPAR activity
CCCCCC(=O)/C=C/[C@H]1[C@H](O)CC(=O)[C@@H]1CCCCCCC(=O)O [15-keto PGE1],–,reacted specifically,–
CCCCCC(=O)/C=C/[C@H]1[C@H](O)CC(=O)[C@@H]1C/C=C\CCCC(=O)O [15-keto PGE2],–,–,"endogenous PPAR activity (reporter gene) (endogenous PPAR): enhanced endogenous PPAR activity significantly; adipogenesis (lipid droplets, oil-red O) (3T3-L1 cells [5]): effectively enhanced adipogenesis at a level similar to BRL49653; PPAR-gamma1 and PPAR-gamma2 expression [6]: significantly enhanced; IRS-2 expression (IRS-2): enhanced the expression to a level similar to MIX; amount of IRS-1 protein (IRS-1): did not increase; expression of aP2 (aP2): strongly induced; efficiency of PGR-2 catalyzed conversion into 13,14-dihydro-15-keto prostaglandin ([4]; kinetics studies, recombinant PGR-2): most efficiently; activation of PPAR-gamma (GAL4-LBD luciferase reporter) (PPAR-gamma): activated"
CCCCCC(=O)/C=C/[C@@H]1[C@@H](CCCCCCC(=O)O)[C@@H](O)C[C@H]1O [15-keto PGF1α],–,reacted specifically,–
CCCCCC(=O)/C=C/[C@@H]1[C@@H](C/C=C\CCCC(=O)O)[C@@H](O)C[C@H]1O [15-keto PGF2α],–,reacted specifically,endogenous PPAR activity (reporter gene) (endogenous PPAR): enhanced endogenous PPAR activity significantly; activation of PPAR-gamma (GAL4-LBD luciferase reporter) (PPAR-gamma): activated
CCCCC[C@H](O)/C=C/[C@@H]1[C@@H](C/C=C\CCCC(=O)O)[C@H](O)C[C@H]1O [PGF2β],–,no specific activity was detected,–
O=c1c(O)c(-c2ccc(O)cc2)oc2cc(O)cc(O)c12 [kaempferol],inhibited,–,–
CCCCC/C=C\C[C@@H](O)/C=C/C=C/C=C\[C@@H](O)CCCC(=O)O [leukotriene B4],–,no specific activity was detected,–
O=c1cc(-c2ccc(O)c(O)c2)oc2cc(O)cc(O)c12 [luteolin],inhibited,–,–
O.O.O=c1c(O)c(-c2ccc(O)c(O)c2)oc2cc(O)cc(O)c12 [quercetin dehydrate],inhibited,–,–
"CC(=O)CC(c1ccccc1)c1c(O)c2ccccc2oc1=O (stereo not shown) [warfarin, reference compound]",inhibited,–,–
